Laboratory results reported in PubChem BioAssay (NCI).
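Step 1: Grow cells in 96-well plates. Step 2: Expose to compound for 48 hours at 5 concentrations. Step 3: Interpolate endpoints linearly; if unreached, use highest concentration. TGI: total growth inhibition.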

Experiments:
Assay in all cases: DTP human tumour cell line panel, 48 h
SNB-75 CNS = test system: SNB-75 CNS
SN12C renal = test system: SN12C renal
PC-3 prostate = test system: PC-3 prostate
SK-OV-3 ovarian = test system: SK-OV-3 ovarian
UACC-62 melanoma = test system: UACC-62 melanoma
IGROV1 ovarian = test system: IGROV1 ovarian
OVCAR-8 ovarian = test system: OVCAR-8 ovarian
HS 578T breast = test system: HS 578T breast
HOP-92 NSCLC = test system: HOP-92 NSCLC
HCT-15 colon = test system: HCT-15 colon
SR leukemia = test system: SR leukemia
SW-620 colon = test system: SW-620 colon
SK-MEL-28 melanoma = test system: SK-MEL-28 melanoma
LOX IMVI melanoma = test system: LOX IMVI melanoma
SK-MEL-2 melanoma = test system: SK-MEL-2 melanoma
EKVX NSCLC = test system: EKVX NSCLC
BT-549 breast = test system: BT-549 breast
MDA-MB-231 breast = test system: MDA-MB-231 breast
786-0 renal = test system: 786-0 renal
T-47D breast = test system: T-47D breast

Structure (SMILES) | TGI (SNB-75 CNS) [µM] | TGI (SN12C renal) [µM] | TGI (PC-3 prostate) [µM] | TGI (SK-OV-3 ovarian) [µM] | TGI (UACC-62 melanoma) [µM] | TGI (IGROV1 ovarian) [µM] | TGI (OVCAR-8 ovarian) [µM] | TGI (HS 578T breast) [µM] | TGI (HOP-92 NSCLC) [µM] | TGI (HCT-15 colon) [µM] | TGI (SR leukemia) [µM] | TGI (SW-620 colon) [µM] | TGI (SK-MEL-28 melanoma) [µM] | TGI (LOX IMVI melanoma) [µM] | TGI (SK-MEL-2 melanoma) [µM] | TGI (EKVX NSCLC) [µM] | TGI (BT-549 breast) [µM] | TGI (MDA-MB-231 breast) [µM] | TGI (786-0 renal) [µM] | TGI (T-47D breast) [µM]
COc1cccc(C2c3cc4c(cc3OC(NNC(N)=O)C2C)OCO4)c1O (stereo not given) | > 69.4 | > 100 | > 100 | > 100 | > 100 | > 100 | > 33.8 | > 50.8 | 51.8 | > 100 | > 19.8 | > 100 | > 69.6 | > 100 | 44.2 | > 50.9 | > 100 | > 59.8 | > 69.3 | > 100
CCCCCCc1cc2cc(C(=O)NCc3ccccc3)c(=N)oc2cc1O | > 100 | > 100 | > 100 | > 100 | > 100 | > 100 | > 100 | > 100 | > 100 | > 100 | > 100 | > 100 | > 100 | > 100 | > 100 | > 100 | > 100 | > 100 | > 100 | > 100
COC(=O)[C@H](C)NC(=O)C1(CNC(=O)[C@H](C)NC(=O)OC(C)(C)C)Cc2ccccc2-c2ccccc2C1 | > 60.2 | 34.6 | > 75.4 | > 100 | 34 | 33.2 | 18.2 | > 60.1 | 21.2 | 31.1 | 43.4 | > 64.3 | > 70.6 | 9.13 | > 68.9 | 47 | > 70.3 | 35.4 | 36.4 | > 62
CC1(c2nc3ccccc3[nH]2)CCC(C#N)C(C)(C)O1 (stereo not given) | > 100 | > 100 | > 100 | > 100 | > 100 | > 100 | > 100 | > 100 | > 100 | > 100 | > 100 | > 100 | > 100 | > 100 | > 100 | > 100 | > 100 | > 100 | > 100 | > 100
CCOc1cc(/C=N/c2nc3cc4sc(/N=C/c5ccc(O)c(OCC)c5)nc4cc3s2)ccc1O | > 100 | > 100 | > 100 | > 100 | > 100 | > 100 | > 100 | > 100 | > 100 | > 100 | > 100 | > 100 | 42.7 | > 100 | > 100 | > 100 | > 100 | > 100 | > 100 | > 100
O=C(CCc1ccc(O)c(O)c1)NCCc1ccccc1 | > 100 | > 31.6 | > 51.9 | > 100 | > 65.2 | > 100 | > 100 | > 100 | > 100 | > 100 | 47.5 | > 100 | > 100 | > 100 | > 93.7 | > 100 | > 89.1 | > 63.8 | > 100 | > 100
CN1C(=O)N/C(=C\c2ccc(S(=O)(=O)N/N=C/c3ccccc3)cc2)C1=O | > 100 | > 100 | > 100 | > 100 | > 100 | > 100 | > 100 | > 100 | 75.5 | > 100 | > 100 | > 100 | > 100 | > 100 | > 100 | > 100 | > 100 | > 100 | > 100 | > 100
Brc1c2c(c(Br)c3nsnc13)N=S=N2 | 63.7 | 32.8 | > 100 | > 79.7 | 33.5 | > 60.7 | 79.7 | 75 | 44.8 | 60 | 14.1 | > 68.5 | > 70.7 | 13.9 | 51 | > 74 | 26.9 | 60.7 | 41.6 | > 66.6
O=C1C=CC(=O)c2c(O)c(NCCO)c(Cl)c(O)c21 | > 6.54 | > 5.55 | > 10 | > 10 | 3.47 | 5.63 | > 10 | > 10 | > 10 | 6.47 | > 6.94 | 5.11 | 3.65 | 3 | > 6.68 | > 10 | > 5.74 | 6.37 | > 10 | > 7.77
